From article PMC9516332 (Frontiers in Oncology, 2022)
pIC50: −log10 of the molar value. Like-named read-outs stand apart in the source and are kept apart here.

Key:
[1] = molecular target: panel of 255 wild-type kinases (Homo sapiens, UniProt O00311); test: Kinase panel profiling at 1 µmol/L (MSA or IMAP), percentage inhibition; format: biochemical; settings: CDC7/ASK kinase assay; 1 µmol/L single concentration; read-out: %-inhibition CDC7/ASK
[2] = molecular target: panel of 255 wild-type kinases (Homo sapiens, UniProt P42684); test: as above; format: biochemical; settings: ARG kinase assay; 1 µmol/L single concentration; read-out: %-inhibition ARG
134 cancer cell lines [3] = test system: 134 cancer cell lines
AP-1060 (ETV6-NTRK3) = test: Cell viability assay; settings: read-out: IC50 in cell proliferation assay
134 cancer cell lines [4] = test: Cell viability assay (ATPlite, 72 hours), IC50 on cancer cell line panel

`COc1ccc(CN2C3CC2CN(c2ccc(-c4cc(OCC(C)(C)O)cn5ncc(C#N)c45)cn2)C3)cn1` [selpercatinib] was tested, and the inhibition at 1 µM [1] was -2%, the inhibition at 1 µM [2] was 10% and the pIC50 (134 cancer cell lines [3]) was 5.41. For the same compound, the pIC50 (AP-1060 (ETV6-NTRK3)) was 5.40, the pIC50 (134 cancer cell lines [4]; HEC-6, read-out: IC50 in cell proliferation assay, HEC-6 cell line (EGFR p.A289V)) was < 4.50 and the pIC50 (134 cancer cell lines [4]; Homo sapiens, 769-P, read-out: IC50 in cell proliferation assay, cell line 769-P) was 5.24. For the same compound, the pIC50 (134 cancer cell lines [4]; Homo sapiens, 786-0, read-out: IC50 in cell proliferation assay, cell line 786-O) was 5.12, the pIC50 (134 cancer cell lines [4]; Homo sapiens, A 172, read-out: IC50 in cell proliferation assay, cell line A-172) was 5.88 and the pIC50 (134 cancer cell lines [4]; Homo sapiens, A204, read-out: IC50 in cell proliferation assay, cell line A-204) was 5.61. For the same compound, the pIC50 (134 cancer cell lines [4]; Homo sapiens, A498, read-out: IC50 in cell proliferation assay, cell line A-498) was 5.20, the pIC50 (134 cancer cell lines [4]; Homo sapiens, A549, read-out: IC50 in cell proliferation assay, cell line A-549) was 5.43 and the pIC50 (134 cancer cell lines [4]; Homo sapiens, A704, read-out: IC50 in cell proliferation assay, cell line A-704) was 5.56. For the same compound, the pIC50 (134 cancer cell lines [4]; Homo sapiens, A-375, read-out: IC50 in cell proliferation assay, cell line A-375 (BRAF p.V600E)) was 5.37, the pIC50 (134 cancer cell lines [4]; Homo sapiens, A-427, read-out: IC50 in cell proliferation assay, cell line A-427) was 5.82 and the pIC50 (134 cancer cell lines [4]; Homo sapiens, ACHN, read-out: IC50 in cell proliferation assay, cell line ACHN) was 5.56. For the same compound, the pIC50 (134 cancer cell lines [4]; Homo sapiens, AN3-CA, read-out: IC50 in cell proliferation assay, cell line AN3-CA (FGFR2 p.N549K)) was 6.24, the pIC50 (134 cancer cell lines [4]; Homo sapiens, ASPC1, read-out: IC50 in cell proliferation assay, cell line AsPC-1) was < 4.50 and the pIC50 (134 cancer cell lines [4]; Homo sapiens, AU565, read-out: IC50 in cell proliferation assay, cell line AU565 (ERBB2 amplification)) was 5.54. For the same compound, the pIC50 (134 cancer cell lines [4]; Homo sapiens, BT-20, read-out: IC50 in cell proliferation assay, cell line BT-20) was 5.47, the pIC50 (134 cancer cell lines [4]; Homo sapiens, BT-474, read-out: IC50 in cell proliferation assay, cell line BT-474 (ERBB2 amplification)) was 4.54 and the pIC50 (134 cancer cell lines [4]; Homo sapiens, BT-549, read-out: IC50 in cell proliferation assay, cell line BT-549) was 5.42. The pIC50 (134 cancer cell lines [4]; Homo sapiens, BXPC-3, read-out: IC50 in cell proliferation assay, cell line BxPC-3) was 5.40, the pIC50 (134 cancer cell lines [4]; Homo sapiens, C-33-A, read-out: IC50 in cell proliferation assay, cell line C-33 A) was 5.55 and the pIC50 (134 cancer cell lines [4]; Homo sapiens, CAL-27, read-out: IC50 in cell proliferation assay, cell line CAL-27) was 5.36. For the same compound, the pIC50 (134 cancer cell lines [4]; Homo sapiens, CCF-STTG1, read-out: IC50 in cell proliferation assay, cell line CCF-STTG1) was 5.10, the pIC50 (134 cancer cell lines [4]; Homo sapiens, CCRF-CEM, read-out: IC50 in cell proliferation assay, cell line CCRF-CEM) was 5.46 and the pIC50 (134 cancer cell lines [4]; Homo sapiens, COLO 205, read-out: IC50 in cell proliferation assay, cell line COLO 205 (BRAF p.V600E)) was 5.35. For the same compound, the pIC50 (134 cancer cell lines [4]; Homo sapiens, COLO-829, read-out: IC50 in cell proliferation assay, cell line COLO 829 (BRAF p.V600E)) was 4.97, the pIC50 (134 cancer cell lines [4]; Homo sapiens, DLD-1, read-out: IC50 in cell proliferation assay, cell line DLD-1) was 5.07 and the pIC50 (134 cancer cell lines [4]; Homo sapiens, DU-4475, read-out: IC50 in cell proliferation assay, cell line DU4475 (BRAF p.V600E)) was 5.20. It also gave a pIC50 (134 cancer cell lines [4]; Homo sapiens, Daoy, read-out: IC50 in cell proliferation assay, cell line Daoy) of 5.50, a pIC50 (134 cancer cell lines [4]; Homo sapiens, DoTc2-4510, read-out: IC50 in cell proliferation assay, cell line DoTc2 4510) of 5.38 and a pIC50 (134 cancer cell lines [4]; Homo sapiens, EOL1, read-out: IC50 in cell proliferation assay, cell line EoL-1 (FIP1L1-PDGFRA)) of 6.54. For the same compound, the pIC50 (134 cancer cell lines [4]; Homo sapiens, FaDu, read-out: IC50 in cell proliferation assay, cell line FaDu) was 5.32, the pIC50 (134 cancer cell lines [4]; Homo sapiens, G-361, read-out: IC50 in cell proliferation assay, cell line G-361 (BRAF p.V600E)) was 5.23 and the pIC50 (134 cancer cell lines [4]; Homo sapiens, HCC827, read-out: IC50 in cell proliferation assay, cell line HCC827 (EGFR exon19del)) was 4.87. The pIC50 (134 cancer cell lines [4]; Homo sapiens, HCC4006, read-out: IC50 in cell proliferation assay, cell line HCC4006 (EGFR exon19del)) was 5.17, the pIC50 (134 cancer cell lines [4]; Homo sapiens, HCT-15, read-out: IC50 in cell proliferation assay, cell line HCT 15) was 4.97 and the pIC50 (134 cancer cell lines [4]; Homo sapiens, HCT-116, read-out: IC50 in cell proliferation assay, cell line HCT 116) was 4.83. It also gave a pIC50 (134 cancer cell lines [4]; Homo sapiens, HEC-1, read-out: IC50 in cell proliferation assay, HEC-1 cell line) of 5.05, a pIC50 (134 cancer cell lines [4]; Homo sapiens, HEC-1B, read-out: IC50 in cell proliferation assay, HEC-1-B cell line (EGFR p.A864V)) of 5.68 and a pIC50 (134 cancer cell lines [4]; Homo sapiens, HL-60, read-out: IC50 in cell proliferation assay, HL-60 cell line) of 5.24. For the same compound, the pIC50 (134 cancer cell lines [4]; Homo sapiens, HT, read-out: IC50 in cell proliferation assay, HT cell line) was 5.31, the pIC50 (134 cancer cell lines [4]; Homo sapiens, HT-1080, read-out: IC50 in cell proliferation assay, HT-1080 cell line) was 5.29 and the pIC50 (134 cancer cell lines [4]; Homo sapiens, Hs746T, read-out: IC50 in cell proliferation assay, Hs 746.T cell line (MET exon14skip + amplification)) was 4.55. It also gave a pIC50 (134 cancer cell lines [4]; Homo sapiens, Hs-578T, read-out: IC50 in cell proliferation assay, Hs 578T cell line) of 5.44, a pIC50 (134 cancer cell lines [4]; Homo sapiens, HuTu80, read-out: IC50 in cell proliferation assay, HuTu 80 cell line) of 5.87 and a pIC50 (134 cancer cell lines [4]; Homo sapiens, J82, read-out: IC50 in cell proliferation assay, J82 cell line) of 5.48. It also gave a pIC50 (134 cancer cell lines [4]; Homo sapiens, Jurkat E6.1, read-out: IC50 in cell proliferation assay, Jurkat E6.1 cell line) of 5.39, a pIC50 (134 cancer cell lines [4]; Homo sapiens, K562, read-out: IC50 in cell proliferation assay, K-562 cell line) of 5.26 and a pIC50 (134 cancer cell lines [4]; Homo sapiens, KATO III, read-out: IC50 in cell proliferation assay, KATO III cell line (FGFR2 amplification)) of 6.62. It also gave a pIC50 (134 cancer cell lines [4]; Homo sapiens, KG-1, read-out: IC50 in cell proliferation assay, KG-1 cell line (FGFR1OP2-FGFR1)) of 6.64, a pIC50 (134 cancer cell lines [4]; Homo sapiens, KLE, read-out: IC50 in cell proliferation assay, KLE cell line) of 5.25 and a pIC50 (134 cancer cell lines [4]; Homo sapiens, KMS-11, read-out: IC50 in cell proliferation assay, KMS-11 cell line (FGFR3 p.Y373C)) of 6.18. The pIC50 (134 cancer cell lines [4]; Homo sapiens, KU812, read-out: IC50 in cell proliferation assay, Ku812 cell line) was 5.45, the pIC50 (134 cancer cell lines [4]; Homo sapiens, Kasumi 1, read-out: IC50 in cell proliferation assay, Kasumi-1 cell line (KIT p.N822K)) was 6.56 and the pIC50 (134 cancer cell lines [4]; Homo sapiens, LC-2-ad, read-out: IC50 in cell proliferation assay, LC-2/ad cell line (CCDC6-RET)) was 7.74. For the same compound, the pIC50 (134 cancer cell lines [4]; Homo sapiens, LNCaP-Clone-FGC, read-out: IC50 in cell proliferation assay, LNCaP clone FGC cell line) was 4.78, the pIC50 (134 cancer cell lines [4]; Homo sapiens, LS174T, read-out: IC50 in cell proliferation assay, LS174T cell line) was 5.38 and the pIC50 (134 cancer cell lines [4]; Homo sapiens, LS-411N, read-out: IC50 in cell proliferation assay, LS411N cell line (BRAF p.V600E)) was 5.43. The pIC50 (134 cancer cell lines [4]; Homo sapiens, LoVo, read-out: IC50 in cell proliferation assay, LoVo cell line) was 6.12, the pIC50 (134 cancer cell lines [4]; Homo sapiens, MCF7, read-out: IC50 in cell proliferation assay, MCF-7 cell line) was < 4.50 and the pIC50 (134 cancer cell lines [4]; Homo sapiens, MDA-MB-231, read-out: IC50 in cell proliferation assay, MDA-MB-231 cell line) was 4.55. The pIC50 (134 cancer cell lines [4]; Homo sapiens, MDA-MB-453, read-out: IC50 in cell proliferation assay, MDA-MB-453 cell line) was < 4.50, the pIC50 (134 cancer cell lines [4]; Homo sapiens, MDA-MB-468, read-out: IC50 in cell proliferation assay, MDA-MB-468 cell line) was 5.26 and the pIC50 (134 cancer cell lines [4]; Homo sapiens, MG-63, read-out: IC50 in cell proliferation assay, MG-63 cell line) was 5.51. The pIC50 (134 cancer cell lines [4]; Homo sapiens, MIA PaCa-2, read-out: IC50 in cell proliferation assay, MIA PaCa-2 cell line) was 5.47 and the pIC50 (134 cancer cell lines [4]; Homo sapiens, MKN-45, read-out: IC50 in cell proliferation assay, MKN45 cell line (MET amplification)) was < 4.50.
